Laboratory results published in article PMC4937633 (Journal of Drug Assessment, 2014).
Several values for one entry are separate records, joined by “and”; a condition that tells them apart may be missing. Equal entries are not always repeated. Where two headings read alike, the source gives them in different places.

How the values were obtained:
[1] = target: T1, mouse mdr1a (Mus musculus, UniProt P21447); assay: P-glycoprotein substrate test, mouse mdr1a transfected LLCPK cells (L-Mdr1a); assay type: in vitro ADME; settings: in vitro
T1 construct: host or cells: LLCPK (porcine kidney epithelial cells), L-Mdr1a
T1 sequence (P21447 whole entry): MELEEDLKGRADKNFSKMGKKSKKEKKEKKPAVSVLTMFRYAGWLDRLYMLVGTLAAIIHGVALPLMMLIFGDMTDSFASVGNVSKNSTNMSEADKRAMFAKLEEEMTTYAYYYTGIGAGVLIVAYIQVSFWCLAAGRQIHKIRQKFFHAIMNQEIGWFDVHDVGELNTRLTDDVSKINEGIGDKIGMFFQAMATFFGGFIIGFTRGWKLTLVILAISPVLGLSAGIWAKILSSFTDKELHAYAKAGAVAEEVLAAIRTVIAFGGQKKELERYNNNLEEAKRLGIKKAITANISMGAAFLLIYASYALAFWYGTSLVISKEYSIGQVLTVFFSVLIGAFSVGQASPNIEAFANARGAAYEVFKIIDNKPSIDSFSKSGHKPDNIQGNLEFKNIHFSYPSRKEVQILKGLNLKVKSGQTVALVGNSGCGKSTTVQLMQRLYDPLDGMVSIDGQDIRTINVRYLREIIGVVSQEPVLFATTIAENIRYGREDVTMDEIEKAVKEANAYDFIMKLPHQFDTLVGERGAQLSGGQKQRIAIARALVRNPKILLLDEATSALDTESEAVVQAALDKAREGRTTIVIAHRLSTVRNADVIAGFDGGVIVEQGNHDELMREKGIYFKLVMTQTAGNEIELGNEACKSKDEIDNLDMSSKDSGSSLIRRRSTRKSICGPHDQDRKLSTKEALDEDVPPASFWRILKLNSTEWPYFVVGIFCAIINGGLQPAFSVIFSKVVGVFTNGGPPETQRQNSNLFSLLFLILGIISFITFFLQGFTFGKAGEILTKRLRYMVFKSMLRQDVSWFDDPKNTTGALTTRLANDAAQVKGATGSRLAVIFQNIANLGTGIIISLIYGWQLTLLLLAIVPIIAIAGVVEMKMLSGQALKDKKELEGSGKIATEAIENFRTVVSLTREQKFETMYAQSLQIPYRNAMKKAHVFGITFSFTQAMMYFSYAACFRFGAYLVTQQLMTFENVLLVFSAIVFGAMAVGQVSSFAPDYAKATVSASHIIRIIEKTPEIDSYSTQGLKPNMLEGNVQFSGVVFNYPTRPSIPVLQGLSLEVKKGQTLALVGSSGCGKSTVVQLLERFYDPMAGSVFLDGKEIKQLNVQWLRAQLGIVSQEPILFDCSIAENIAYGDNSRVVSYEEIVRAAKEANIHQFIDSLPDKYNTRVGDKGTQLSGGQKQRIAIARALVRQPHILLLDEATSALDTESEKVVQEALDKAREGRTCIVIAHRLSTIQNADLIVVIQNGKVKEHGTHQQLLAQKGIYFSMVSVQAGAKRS
Source text: (§1) Wild type and transfected MDCKII (ATCC #CCL34, cocker spaniel kidney epithelial cell line) and the LLCPK (ATCC #CL-101, porcine kidney epithelial cell line) cell lines were obtained from Dr A. Schinkel (The Netherlands Cancer Institute, Amsterdam, The Netherlands) and used under license agreement. […] The non-transfected wild-type cell lines MDCKII or LLCPK were used as controls. […] More assay details were recently published.

[2] = system: Type 2 diabetes animal models; design: method as in PMID 17073841, PMID 17981667; settings: dose-dependent; cited from earlier work
[3] = target: T2, P-glycoprotein (Pgp) (Homo sapiens, UniProt P08183); assay: Pgp inhibition potential with digoxin as model substrate (M-MDR1 cells); assay type: in vitro ADME; settings: in vitro
T2 construct: host or cells: transfected MDCKII or LLCPK cells
T2 sequence (P08183 whole entry): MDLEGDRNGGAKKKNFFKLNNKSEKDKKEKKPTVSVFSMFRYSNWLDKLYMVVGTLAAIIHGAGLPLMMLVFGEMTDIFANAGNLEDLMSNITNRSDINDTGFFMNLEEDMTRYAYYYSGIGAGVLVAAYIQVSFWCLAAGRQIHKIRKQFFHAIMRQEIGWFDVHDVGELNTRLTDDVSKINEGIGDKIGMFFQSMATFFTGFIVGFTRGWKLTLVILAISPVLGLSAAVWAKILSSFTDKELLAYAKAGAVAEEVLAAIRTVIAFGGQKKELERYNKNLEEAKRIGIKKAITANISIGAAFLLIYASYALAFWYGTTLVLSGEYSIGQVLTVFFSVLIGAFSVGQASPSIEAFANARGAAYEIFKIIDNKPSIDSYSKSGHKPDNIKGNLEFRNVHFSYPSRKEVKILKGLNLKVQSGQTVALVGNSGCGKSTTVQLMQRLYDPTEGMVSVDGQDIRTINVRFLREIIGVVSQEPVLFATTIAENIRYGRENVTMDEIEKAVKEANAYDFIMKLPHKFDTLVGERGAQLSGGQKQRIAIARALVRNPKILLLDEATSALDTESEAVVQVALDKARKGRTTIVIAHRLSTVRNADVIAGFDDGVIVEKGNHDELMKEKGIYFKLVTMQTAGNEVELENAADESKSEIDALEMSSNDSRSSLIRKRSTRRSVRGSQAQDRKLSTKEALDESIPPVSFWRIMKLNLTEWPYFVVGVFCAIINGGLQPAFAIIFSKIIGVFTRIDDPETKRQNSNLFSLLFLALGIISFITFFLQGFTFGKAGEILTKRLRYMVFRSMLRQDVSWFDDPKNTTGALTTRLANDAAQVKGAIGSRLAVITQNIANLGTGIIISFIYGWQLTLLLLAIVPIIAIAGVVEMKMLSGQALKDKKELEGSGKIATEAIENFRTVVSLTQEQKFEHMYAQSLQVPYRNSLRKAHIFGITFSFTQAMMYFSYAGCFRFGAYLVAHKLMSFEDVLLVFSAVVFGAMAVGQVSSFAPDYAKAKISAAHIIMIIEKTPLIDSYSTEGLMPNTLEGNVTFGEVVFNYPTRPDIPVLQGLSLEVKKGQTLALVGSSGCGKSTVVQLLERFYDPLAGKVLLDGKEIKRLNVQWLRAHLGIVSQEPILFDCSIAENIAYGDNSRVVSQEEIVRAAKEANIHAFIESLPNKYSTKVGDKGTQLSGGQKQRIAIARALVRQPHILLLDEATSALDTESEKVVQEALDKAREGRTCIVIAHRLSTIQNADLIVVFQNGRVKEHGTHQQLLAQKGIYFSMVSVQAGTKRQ
Source text: The non-transfected wild-type cell lines MDCKII or LLCPK were used as controls. […] More assay details were recently published.

[4] = system: CHO cells; assay: Uptake in CHO cells; assay type: in vitro ADME; settings: data not shown
[5] = In vitro cell permeability; assay type: in vitro ADME
Source text: as §1

[6] = Clinical pharmacokinetics of carmegliptin (plasma and urine) alone or with verapamil; assay type: in vivo, human; settings: for AUC(0-inf) / Cmax / half-life / AUC(0-t) / Vd/F / Tmax: plasma; for Vd/F: read-out: Vz/F; for Tmax: median (range)
Description: All urine produced by subjects during each sampling interval was collected in pre-weighed polyethylene containers. The urine was refrigerated (2–8°C) between collections and, at the end of each collection interval, an aliquot of ∼10 mL was transferred to polyethylene tubes.
Plasma and urine samples were analyzed for carmegliptin by high-performance liquid chromatography combined with tandem mass spectrometric detection at F. Hoffmann-La Roche Ltd, Basel, Switzerland. The lower limit of quantification was 1 ng/mL for plasma and 20 ng/mL for urine.

[7] = Clinical safety and tolerability assessments; assay type: in vivo, human
Source text: Safety assessments during the treatment period included all adverse events, clinical laboratory safety tests (days 3, 9, and 14), urine chemistry (days 1, 10, and 15), 24-h ECGs (days 1, 10, and 15), and Lead-2 telemetry (days 1, 10, and 15). Subjects were resident in the unit on four occasions (day – 1 to day 3, day 6 to day 8 [morning], day 9 [evening] to day 12, and day 14 to day 17). Ambulatory visits were also required on day 8 (evening) and day 9 (morning) for pharmacokinetic sampling.
All adverse events (AEs) occurring during the clinical study were recorded and their intensity was assessed by investigators as mild, moderate, or severe. AEs occurring before first dosing were reported as baseline signs and symptoms. […] Investigators also assessed each AE’s relationship to treatment as unrelated, remote, possible, or probable. Factors used to determine the relationship to treatment included the temporal association of the AE with administration of study drug, the known pattern of response to the suspected drug, and re-appearance of the AE on re-challenge with the drug.
Vital signs, systolic and diastolic blood pressure, heart rate, and oral temperature were assessed after the subject had been in a supine position for at least 5 min. Vital signs were recorded at the following time-points: Screening visit, treatment period (days 1, 10, and 15 pre-dose and at 2, 6, and 12 h post-dose, and pre-dose only on days 3, 7, and 11–14), and at the follow-up visit. In addition, 12 lead-ECGs were recorded at screening visit day – 1, on days 1, 10, and 15 (pre-dose and at 2, 6, and 12 h post-dose) and at the follow-up visit. Heart rate, QT, QTcB, PR, and QRS were captured directly from the ECG machine. QTcF and RR were derived. T-wave morphology, the occurrence of U-waves, and any other observed abnormalities were additionally recorded. […] The CRF captured whether the results were normal or abnormal.

[8] = system: primary rat hepatocytes; assay: Uptake by primary rat hepatocytes; assay type: in vitro ADME; settings: data not shown
[9] = target: T3, human MDR1 (Homo sapiens, UniProt P08183); assay: P-glycoprotein substrate test, human MDR1 transfected MDCKII cells (M-MDR1); assay type: in vitro ADME; settings: in vitro; M-MDR1 and L-MDR1 cells
T3 construct: host or cells: MDCKII (canine kidney epithelial cells), M-MDR1
T3 sequence (P08183 whole entry): as above
Source text: as §1

[10] = system: primary human hepatocytes; assay: Uptake by primary human hepatocytes; assay type: in vitro ADME; settings: data not shown
[11] = Clinical pharmacokinetics of verapamil and norverapamil alone or with carmegliptin; settings: male, human, plasma, oral, 80 mg
[12] = system: Pgp; settings: in vitro; cited from earlier work
[13] = acute verapamil (day 10) vs day 1
[14] = carmegliptin 150 mg + chronic verapamil 80 mg t.i.d., day 15, geometric mean (CV%)
[15] = chronic verapamil (day 15) vs day 1
[16] = male, human, oral, 150 mg, carmegliptin 150 mg single dose alone, day 1, geometric mean (CV%)
[17] = male, human, oral, carmegliptin 150 mg + acute verapamil 80 mg t.i.d., day 10, geometric mean (CV%)
[18] = male, human, oral, carmegliptin 150 mg + chronic verapamil 80 mg t.i.d., day 15, geometric mean (CV%)

COc1cc2c(cc1OC)[C@@H]1C[C@H](N)[C@@H](N3C[C@@H](CF)CC3=O)CN1CC2 [Carmegliptin]
substrate of rodent mdr1a [1]: good substrate | glucose tolerance [2]: improved glucose tolerance | inhibitor of P-glycoprotein (Pgp) [3]: not an inhibitor | uptake process [4]: mainly passive diffusion | cell permeability [5]: low cell permeability | AUCinf higher than carmegliptin alone [6, 13]: 19% | Cmax higher than carmegliptin alone [6, 13]: 48% | maximum plasma levels attained earlier than carmegliptin alone [6, 13]: ~2.25 h | Fe (fraction of dose excreted unchanged in urine over 48 h) ([6]; carmegliptin 150 mg + acute verapamil 80 mg t.i.d., day 10, geometric mean (CV%)): 33% and 33.1% and 33.1 (17.7) % | CLr (renal clearance) [6, 14]: 13.6 (14.7) L/h | Fe (fraction of dose excreted unchanged in urine over 48 h) [6, 14]: 38.7% and 38.7 (18.1) % | Fe (fraction of dose excreted unchanged in urine over 48 h) ([6]; carmegliptin 150 mg single dose alone, day 1, geometric mean (CV%)): 26% and 26.0 (22.7) % | AUCinf higher than carmegliptin alone [6, 15]: 29% | Cmax higher than carmegliptin alone [6, 15]: 53% | maximum plasma levels attained earlier than carmegliptin alone [6, 15]: ~1.5 h | peak concentrations occurred earlier ([6]; co-administered with verapamil, acute and chronic): 1.5 to 2.25 h | CL renal ([6]; male, human, plasma and urine, oral, 150 mg, read-out: CLr (renal clearance) (converted)): 215 mL/min | AUC(0-inf) [6, 16]: 3570 ng·h/mL | Cmax [6, 16]: 342 ng/mL | half-life [6, 16]: 1340 min | AUC(0-t) ([6]; male, human, oral, 150 mg, carmegliptin 150 mg single dose alone, day 1, geometric mean (CV%), read-out: AUC0–24): 2410 ng·h/mL | AUC(0-t) ([6]; male, human, oral, 150 mg, carmegliptin 150 mg single dose alone, day 1, geometric mean (CV%), read-out: AUClast): 3010 ng·h/mL | Vd/F [6, 16]: 1360 L | Tmax ([6]; male, human, oral, 150 mg, carmegliptin 150 mg single dose alone, day 1): 3 h | AUC(0-inf) [6, 17]: 4250 ng·h/mL | Cmax [6, 17]: 505 ng/mL | half-life [6, 17]: 1310 min | AUC(0-t) ([6]; male, human, oral, carmegliptin 150 mg + acute verapamil 80 mg t.i.d., day 10, geometric mean (CV%), read-out: AUC0–24): 2950 ng·h/mL | AUC(0-t) ([6]; male, human, oral, carmegliptin 150 mg + acute verapamil 80 mg t.i.d., day 10, geometric mean (CV%), read-out: AUClast): 3650 ng·h/mL | Vd/F [6, 17]: 1110 L | Tmax ([6]; male, human, oral, carmegliptin 150 mg + acute verapamil 80 mg t.i.d., day 10): 0.75 h | AUC(0-inf) [6, 18]: 4590 ng·h/mL | Cmax [6, 18]: 522 ng/mL | half-life [6, 18]: 864 min | AUC(0-t) ([6]; male, human, oral, carmegliptin 150 mg + chronic verapamil 80 mg t.i.d., day 15, geometric mean (CV%), read-out: AUC0–24): 3620 ng·h/mL | AUC(0-t) ([6]; male, human, oral, carmegliptin 150 mg + chronic verapamil 80 mg t.i.d., day 15, geometric mean (CV%), read-out: AUClast): 4280 ng·h/mL | Vd/F [6, 18]: 678 L | Tmax ([6]; male, human, oral, carmegliptin 150 mg + chronic verapamil 80 mg t.i.d., day 15): 1.5 h | subjects with prolonged PQ(PR) intervals (>200 ms) ([7]; after carmegliptin alone (day 1)): one | tolerability ([7]; combination of carmegliptin and verapamil): generally well tolerated | changes in vital signs, ECGs, or laboratory test variables attributed to treatment ([7]; healthy male volunteers): No changes | tolerability ([7]; healthy male volunteers, carmegliptin 150 mg): generally well tolerated | uptake process [8]: mainly passive diffusion | substrate of human MDR1 / human Pgp [9]: good substrate | uptake process [10]: mainly passive diffusion

COc1ccc(CCNCCCC(C#N)(c2ccc(OC)c(OC)c2)C(C)C)cc1OC (stereo not shown) [Norverapamil]
AUC(0-t) [11]: 203 ng·h/mL | Cmax [11]: 63.8 ng/mL | Tmax [11]: 1 h | effect on Pgp activity [12]: inhibitory effects on Pgp activity
